For one molecule, GI50 results are on record in ChEMBL document CHEMBL1127961, “Antineoplastic agents 315. Isolation and structure of the marine sponge cancer cell growth inhibitor phakellistatin 5” (1994).

This experiment relates to NCI. The experiment in a line: Antineoplastic activity against NCI human leukemia cancer cell line. The format is functional.

SMILES strings stand for the structures. Values joined by “and” are separate entries in the source; they are usually repeats but may differ in a detail not shown here. Equal values may be shown once.

The term GI50 denotes the concentration that inhibits growth by half. Read a high GI50 as lower sensitivity of the cells. In the case of `CC[C@H](C)[C@@H]1NC(=O)C(C)NC(=O)[C@H](CCSC)NC(=O)C(C)NC(=O)[C@H](CC(N)=O)NC(=O)[C@H](Cc2ccccc2)NC(=O)C2CCCN2C1=O` (single isomer, unassigned) [PHAKELLI STATIN 5], the GI50 was 3000 nM and 600 nM.
